In the NIST ThermoML archive (doi:10.1016/j.jct.2019.06.007):
Numbers after ± are expanded uncertainties.

Conditions: Crystal; DTA

## Cn1c(=O)c2c(ncn2CC(O)CO)n(C)c1=O (stereo unspecified)
  Normal melting temperature: 159.90 ± 1.1 °C
